In the kinase profiling compilation of Christmann-Franck et al. (2016):

Columns and labels:
Test in all cases: KINOMEscan competition binding
Details in all cases: compound 10.0 µM
ACVRL1 (human) = ACVRL1 (human) (UniProt P37023)
ADCK3 (human) = ADCK3 (human) (UniProt Q8NI60)
AKT2 (human) = AKT2 (human) (UniProt P31751)
BTK (human) = BTK (human) (UniProt Q06187)
CAMK1D (human) = CAMK1D (human) (UniProt Q8IU85)
CAMK2A (human) = CAMK2A (human) (UniProt Q9UQM7)
CAMK4 (human) = CAMK4 (human) (UniProt Q16566)
CAMK4 (human), sequence (Q16566 whole entry, looked up): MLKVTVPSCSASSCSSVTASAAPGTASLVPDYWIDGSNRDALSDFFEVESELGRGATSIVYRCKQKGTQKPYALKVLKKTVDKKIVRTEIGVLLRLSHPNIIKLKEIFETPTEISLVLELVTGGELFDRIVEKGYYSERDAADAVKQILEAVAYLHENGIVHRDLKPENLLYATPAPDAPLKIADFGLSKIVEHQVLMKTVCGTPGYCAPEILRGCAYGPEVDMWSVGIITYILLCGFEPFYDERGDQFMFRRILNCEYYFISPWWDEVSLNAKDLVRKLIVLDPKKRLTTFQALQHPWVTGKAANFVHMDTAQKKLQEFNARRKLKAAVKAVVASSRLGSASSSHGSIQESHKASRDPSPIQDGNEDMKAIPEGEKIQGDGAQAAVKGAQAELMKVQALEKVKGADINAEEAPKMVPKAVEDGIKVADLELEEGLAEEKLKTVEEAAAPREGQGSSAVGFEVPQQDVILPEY

CDKL5 (human) = CDKL5 (human) (UniProt O76039)
CLK1 (human) = CLK1 (human) (UniProt P49759)
CLK4 (human) = CLK4 (human) (UniProt Q9HAZ1)
[1] = system: EGFR (human), P00533 [G719C]
EPHB6 (human) = EPHB6 (human) (UniProt O15197)
FRK (human) = FRK (human) (UniProt P42685)
GRK1 (human) = GRK1 (human) (UniProt Q15835)
HIPK2 (human) = HIPK2 (human) (UniProt Q9H2X6)
MAP2K4 (human) = MAP2K4 (human) (UniProt P45985)
MAP2K4 (human), sequence (P45985 whole entry, looked up): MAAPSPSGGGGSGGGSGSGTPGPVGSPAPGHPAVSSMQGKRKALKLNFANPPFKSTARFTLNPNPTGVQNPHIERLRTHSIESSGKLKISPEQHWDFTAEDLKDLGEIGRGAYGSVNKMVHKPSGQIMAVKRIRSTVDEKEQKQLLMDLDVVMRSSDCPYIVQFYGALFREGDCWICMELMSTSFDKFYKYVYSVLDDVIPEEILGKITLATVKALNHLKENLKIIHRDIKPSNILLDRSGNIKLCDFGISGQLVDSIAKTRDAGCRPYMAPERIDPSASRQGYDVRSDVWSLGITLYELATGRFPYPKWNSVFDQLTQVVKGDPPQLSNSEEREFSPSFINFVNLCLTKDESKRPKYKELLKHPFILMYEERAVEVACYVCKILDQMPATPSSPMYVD

MAP3K5 (human) = MAP3K5 (human) (UniProt Q99683)
MAPK10 (human) = MAPK10 (human) (UniProt P53779)
MAPK10 (human), sequence (P53779 whole entry, looked up): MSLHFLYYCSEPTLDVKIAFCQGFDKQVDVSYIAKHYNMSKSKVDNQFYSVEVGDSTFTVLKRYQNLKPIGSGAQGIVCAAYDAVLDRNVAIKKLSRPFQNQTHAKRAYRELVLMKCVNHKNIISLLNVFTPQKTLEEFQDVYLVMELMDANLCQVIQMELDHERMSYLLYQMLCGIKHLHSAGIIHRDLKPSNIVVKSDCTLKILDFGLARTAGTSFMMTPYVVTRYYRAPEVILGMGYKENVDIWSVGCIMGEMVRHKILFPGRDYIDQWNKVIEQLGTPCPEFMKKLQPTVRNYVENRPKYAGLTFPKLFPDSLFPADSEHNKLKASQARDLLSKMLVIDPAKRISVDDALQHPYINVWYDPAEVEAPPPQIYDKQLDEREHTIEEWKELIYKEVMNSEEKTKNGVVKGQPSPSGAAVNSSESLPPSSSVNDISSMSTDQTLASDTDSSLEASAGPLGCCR

MAPK4 (human) = MAPK4 (human) (UniProt P31152)
MAPK8 (human) = MAPK8 (human) (UniProt P45983)
MAPK9 (human) = MAPK9 (human) (UniProt P45984)
[2] = system: MET (human), P08581 [M1250T]
MUSK (human) = MUSK (human) (UniProt O15146)
PAK6 (human) = PAK6 (human) (UniProt Q9NQU5)
PHKG1 (human) = PHKG1 (human) (UniProt Q16816)
PI4KB (human) = PI4KB (human) (UniProt Q9UBF8)
PIK3C2B (human) = PIK3C2B (human) (UniProt O00750)
PKN2 (human) = PKN2 (human) (UniProt Q16513)
PKN2 (human), sequence (Q16513 whole entry, looked up): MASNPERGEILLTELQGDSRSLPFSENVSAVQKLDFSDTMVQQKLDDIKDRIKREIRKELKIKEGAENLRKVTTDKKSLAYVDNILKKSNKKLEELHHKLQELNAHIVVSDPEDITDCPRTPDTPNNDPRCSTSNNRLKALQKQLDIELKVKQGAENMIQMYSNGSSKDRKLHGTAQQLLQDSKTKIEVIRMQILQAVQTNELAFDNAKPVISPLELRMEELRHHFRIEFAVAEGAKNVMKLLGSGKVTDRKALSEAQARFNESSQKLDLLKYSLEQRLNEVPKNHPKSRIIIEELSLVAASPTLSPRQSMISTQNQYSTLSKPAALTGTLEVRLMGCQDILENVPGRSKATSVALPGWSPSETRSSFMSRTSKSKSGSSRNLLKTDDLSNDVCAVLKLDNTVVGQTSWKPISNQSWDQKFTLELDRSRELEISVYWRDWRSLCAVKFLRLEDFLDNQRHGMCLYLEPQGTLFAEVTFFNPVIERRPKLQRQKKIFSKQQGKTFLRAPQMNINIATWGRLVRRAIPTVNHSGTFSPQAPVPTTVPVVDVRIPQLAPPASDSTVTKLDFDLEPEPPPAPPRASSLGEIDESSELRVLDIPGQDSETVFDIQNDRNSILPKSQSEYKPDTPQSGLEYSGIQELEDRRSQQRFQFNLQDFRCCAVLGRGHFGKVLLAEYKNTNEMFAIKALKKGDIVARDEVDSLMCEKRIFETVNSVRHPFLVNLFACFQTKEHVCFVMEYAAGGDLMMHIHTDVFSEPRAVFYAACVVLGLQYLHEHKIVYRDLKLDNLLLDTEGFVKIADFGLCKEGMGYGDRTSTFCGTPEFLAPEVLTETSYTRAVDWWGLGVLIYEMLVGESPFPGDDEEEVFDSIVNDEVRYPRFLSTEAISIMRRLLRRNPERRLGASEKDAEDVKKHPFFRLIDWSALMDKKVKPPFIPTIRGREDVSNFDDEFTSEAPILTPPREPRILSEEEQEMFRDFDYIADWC

PRKCH (human) = PRKCH (human) (UniProt P24723)
PRKCH (human), sequence (P24723 whole entry, looked up): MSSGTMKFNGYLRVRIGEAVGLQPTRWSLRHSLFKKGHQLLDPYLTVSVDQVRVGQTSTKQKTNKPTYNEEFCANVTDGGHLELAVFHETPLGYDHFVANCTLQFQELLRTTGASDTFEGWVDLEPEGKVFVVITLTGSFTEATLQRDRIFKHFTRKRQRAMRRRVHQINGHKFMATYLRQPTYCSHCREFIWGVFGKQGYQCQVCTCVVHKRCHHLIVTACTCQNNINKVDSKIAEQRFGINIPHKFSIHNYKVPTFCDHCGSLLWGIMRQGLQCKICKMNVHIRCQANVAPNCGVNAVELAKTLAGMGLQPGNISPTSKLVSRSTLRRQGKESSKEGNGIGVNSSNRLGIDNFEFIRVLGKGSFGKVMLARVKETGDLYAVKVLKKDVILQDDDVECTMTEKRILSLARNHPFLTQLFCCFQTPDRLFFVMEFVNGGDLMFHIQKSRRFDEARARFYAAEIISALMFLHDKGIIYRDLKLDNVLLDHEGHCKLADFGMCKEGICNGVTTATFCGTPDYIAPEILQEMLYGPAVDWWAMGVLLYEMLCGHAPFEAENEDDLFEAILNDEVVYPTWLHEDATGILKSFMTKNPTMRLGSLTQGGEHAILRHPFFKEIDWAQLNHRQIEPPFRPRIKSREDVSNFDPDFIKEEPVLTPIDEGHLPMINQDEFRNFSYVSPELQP

PRKCQ (human) = PRKCQ (human) (UniProt Q04759)
PRKX (human) = PRKX (human) (UniProt P51817)
PRPF4B (human) = PRPF4B (human) (UniProt Q13523)
RET (human) = RET (human) (UniProt P07949)
ROCK1 (human) = ROCK1 (human) (UniProt Q13464)
ROCK1 (human), sequence (Q13464 whole entry, looked up): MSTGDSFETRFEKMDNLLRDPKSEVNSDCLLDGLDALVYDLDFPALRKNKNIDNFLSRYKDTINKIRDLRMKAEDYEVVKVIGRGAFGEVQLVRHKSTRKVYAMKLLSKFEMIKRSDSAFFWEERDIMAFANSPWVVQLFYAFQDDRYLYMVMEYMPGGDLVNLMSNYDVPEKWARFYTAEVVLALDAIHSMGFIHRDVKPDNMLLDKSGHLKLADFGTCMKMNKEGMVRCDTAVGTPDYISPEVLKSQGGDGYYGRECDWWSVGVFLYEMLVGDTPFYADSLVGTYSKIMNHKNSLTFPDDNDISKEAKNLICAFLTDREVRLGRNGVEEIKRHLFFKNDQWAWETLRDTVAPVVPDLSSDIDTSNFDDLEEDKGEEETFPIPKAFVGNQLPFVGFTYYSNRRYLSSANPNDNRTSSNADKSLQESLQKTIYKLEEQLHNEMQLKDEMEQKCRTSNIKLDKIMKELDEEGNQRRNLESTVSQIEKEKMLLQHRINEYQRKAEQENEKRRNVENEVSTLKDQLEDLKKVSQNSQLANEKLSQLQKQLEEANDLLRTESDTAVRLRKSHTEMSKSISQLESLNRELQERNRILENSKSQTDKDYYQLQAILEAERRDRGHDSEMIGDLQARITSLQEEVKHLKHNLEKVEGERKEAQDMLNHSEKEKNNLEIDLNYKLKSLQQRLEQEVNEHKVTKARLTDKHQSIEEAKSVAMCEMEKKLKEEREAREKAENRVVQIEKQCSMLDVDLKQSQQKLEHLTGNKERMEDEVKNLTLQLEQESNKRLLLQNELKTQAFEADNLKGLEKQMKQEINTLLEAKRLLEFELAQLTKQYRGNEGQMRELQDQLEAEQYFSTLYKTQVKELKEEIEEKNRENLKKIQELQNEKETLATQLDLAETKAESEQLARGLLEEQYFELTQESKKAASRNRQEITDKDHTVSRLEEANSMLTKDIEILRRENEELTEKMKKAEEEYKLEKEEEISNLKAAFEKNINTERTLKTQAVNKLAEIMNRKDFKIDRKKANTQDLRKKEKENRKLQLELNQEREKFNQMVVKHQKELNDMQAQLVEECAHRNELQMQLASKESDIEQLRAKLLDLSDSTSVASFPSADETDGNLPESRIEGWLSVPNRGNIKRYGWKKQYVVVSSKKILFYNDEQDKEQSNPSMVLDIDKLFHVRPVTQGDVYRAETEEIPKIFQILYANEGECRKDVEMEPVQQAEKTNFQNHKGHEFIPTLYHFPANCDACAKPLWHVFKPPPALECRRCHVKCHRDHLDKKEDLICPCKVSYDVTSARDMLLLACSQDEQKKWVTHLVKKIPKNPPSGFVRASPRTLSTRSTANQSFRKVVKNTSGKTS

SRC (human) = SRC (human) (UniProt P12931)
STK11 (human) = STK11 (human) (UniProt Q15831)
STK11 (human), sequence (Q15831 whole entry, looked up): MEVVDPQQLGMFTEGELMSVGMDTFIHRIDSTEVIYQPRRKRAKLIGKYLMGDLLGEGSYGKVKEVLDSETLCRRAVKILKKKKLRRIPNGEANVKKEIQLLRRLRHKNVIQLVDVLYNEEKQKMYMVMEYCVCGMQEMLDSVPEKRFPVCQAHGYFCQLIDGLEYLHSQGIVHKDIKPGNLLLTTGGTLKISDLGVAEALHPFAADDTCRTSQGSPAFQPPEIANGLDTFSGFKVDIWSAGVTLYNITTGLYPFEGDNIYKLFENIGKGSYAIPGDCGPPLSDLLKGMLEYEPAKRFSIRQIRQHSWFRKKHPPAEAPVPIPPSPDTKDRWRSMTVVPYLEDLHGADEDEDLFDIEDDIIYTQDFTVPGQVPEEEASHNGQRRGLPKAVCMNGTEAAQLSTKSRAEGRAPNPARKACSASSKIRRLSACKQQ

STK17A (human) = STK17A (human) (UniProt Q9UEE5)
TIE1 (human) = TIE1 (human) (UniProt P35590)
TRPM6 (human) = TRPM6 (human) (UniProt Q9BX84)
TTK (human) = TTK (human) (UniProt P33981)
ZAP70 (human) = ZAP70 (human) (UniProt P43403)

## CCN1CCN(Cc2ccc(NC(=O)c3ccc(C)c(/C=C/c4cnc5[nH]ccc5c4OC)c3)cc2C(F)(F)F)CC1
ACVRL1 (human)
  kinase still bound, per cent of control: 100%
ADCK3 (human)
  kinase still bound, per cent of control: 100%
AKT2 (human)
  kinase still bound, per cent of control: 48%
BTK (human)
  kinase still bound, per cent of control: 0.3%
CAMK1D (human)
  kinase still bound, per cent of control: 100%
CAMK2A (human)
  kinase still bound, per cent of control: 100%
CAMK4 (human)
  kinase still bound, per cent of control: 100%
CDKL5 (human)
  kinase still bound, per cent of control: 78%
CLK1 (human)
  kinase still bound, per cent of control: 14%
CLK4 (human)
  kinase still bound, per cent of control: 100%
[1]
  kinase still bound, per cent of control: 0.05%
EPHB6 (human)
  kinase still bound, per cent of control: 1.8%
FRK (human)
  kinase still bound, per cent of control: 0.6%
GRK1 (human)
  kinase still bound, per cent of control: 96%
HIPK2 (human)
  kinase still bound, per cent of control: 41%
MAP2K4 (human)
  kinase still bound, per cent of control: 76%
MAP3K5 (human)
  kinase still bound, per cent of control: 35%
MAPK10 (human)
  kinase still bound, per cent of control: 15%
MAPK4 (human)
  kinase still bound, per cent of control: 100%
MAPK8 (human)
  kinase still bound, per cent of control: 19%
MAPK9 (human)
  kinase still bound, per cent of control: 0.1%
[2]
  kinase still bound, per cent of control: 26%
MUSK (human)
  kinase still bound, per cent of control: 0%
PAK6 (human)
  kinase still bound, per cent of control: 54%
PHKG1 (human)
  kinase still bound, per cent of control: 100%
PI4KB (human)
  kinase still bound, per cent of control: 91%
PIK3C2B (human)
  kinase still bound, per cent of control: 100%
PKN2 (human)
  kinase still bound, per cent of control: 26%
PRKCH (human)
  kinase still bound, per cent of control: 100%
PRKCQ (human)
  kinase still bound, per cent of control: 31%
PRKX (human)
  kinase still bound, per cent of control: 75%
PRPF4B (human)
  kinase still bound, per cent of control: 12%
RET (human)
  kinase still bound, per cent of control: 0.1%
ROCK1 (human)
  kinase still bound, per cent of control: 43%
SRC (human)
  kinase still bound, per cent of control: 0.15%
STK11 (human)
  kinase still bound, per cent of control: 7.9%
STK17A (human)
  kinase still bound, per cent of control: 1.3%
TIE1 (human)
  kinase still bound, per cent of control: 4.6%
TRPM6 (human)
  kinase still bound, per cent of control: 100%
TTK (human)
  kinase still bound, per cent of control: 6.8%
ZAP70 (human)
  kinase still bound, per cent of control: 52%
